One may read the IC50 as the point on the concentration scale where inhibition reaches its midpoint. Read a high IC50 as a need for much substance.

In assay [1] the target is T1, MAGL (Homo sapiens, UniProt Q99685).
T1 sequence (Q99685 1-303): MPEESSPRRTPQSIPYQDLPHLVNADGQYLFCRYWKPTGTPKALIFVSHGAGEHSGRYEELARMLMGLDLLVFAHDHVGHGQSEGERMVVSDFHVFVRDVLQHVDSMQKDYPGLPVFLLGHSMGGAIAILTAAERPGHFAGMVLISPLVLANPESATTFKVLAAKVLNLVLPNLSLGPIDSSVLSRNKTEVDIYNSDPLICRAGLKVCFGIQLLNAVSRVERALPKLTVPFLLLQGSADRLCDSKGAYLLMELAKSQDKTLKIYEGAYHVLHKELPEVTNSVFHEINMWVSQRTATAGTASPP
The assay can be described thus: In vitro competitive activity-based protein profiling, PC3 human cell membrane proteomes. It counts as biochemical. Set-up: endogenous in cells; host or cells: PC3 human cells (membrane proteome). As to conditions: human PC3 membrane proteome; for inhibition at 1 µM: read-out: MAGL % inh. 1 μM (human PC3). An outline of the steps:
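Competitive ABPP in PC3 membrane proteome (2.0 mg/mL protein): inhibitors preincubated 30 min at 37° C, then JW912-Bodipy probe added for 30 min at room temperature. MAGL band fluorescence after SDS-PAGE normalised to DMSO; IC50 from 4-parameter sigmoidal fit.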

The target in assay [2] is T1, MAGL. The assay can be described thus: In vitro competitive substrate hydrolysis enzyme activity assay (pNPA), HEK293 cell lysates. The arrangement: expressed in transfected cells; host or cells: HEK293. As to conditions: HEK293 lysate. The class given is biochemical. The protocol: HEK293 cell lysates expressing recombinant human MAGL enzyme and 4-nitrophenyl acetate (pNPA) substrate were diluted separately in 50 mM HEPES (pH 7.0) containing 200 mM KCl and 1 mM EDTA. Lysates (50 μL, ˜1.2 μg total protein) were preincubated with varying concentrations of inhibitors at 25° C. After 30 min, 2×pNPA substrate (50 μL, 2.5 mM) was added and the rate of substrate turnover was monitored by measuring the increase in absorbance at wavelength 405 nm for 20 minutes at 25° C. using a Biotek Neo2 plate reader. The mean velocity was converted to percent enzyme activity following background subtraction and normalization to DMSO controls. IC50 values were determined by fitting percent enzyme activities to a non-linear regression, 4-parameter, sigmoidal dose response function in Prism GraphPad.

For the compound `O=C(Nc1cncc(Cl)c1)C1CC12CCN(C(=O)OC(C(F)(F)F)C(F)(F)F)CC2` (single isomer, unassigned) [Example 66, 1,1,1,3,3,3-hexafluoropropan-2-yl (R or S)-1-((5-chloropyridin-3-yl)carbamoyl)-6-azaspiro[2.5]octane-6-carboxylate], at MAGL [1], the inhibition at 1 µM came out at 100% and the IC50 amounted to 0.0042 µM. Further, at MAGL [2], the IC50 turned out to be 0.00102 µM.

For `O=C(OC(C(F)(F)F)C(F)(F)F)N1CCC2(CC1)CC2C(=O)N1CCc2nc(C3CC3)ncc2C1` (single isomer, unassigned) [Example 63, 1,1,1,3,3,3-hexafluoropropan-2-yl (R or S)-1-(2-cyclopropyl-5,6,7,8-tetrahydropyrido[4,3-d]pyrimidine-6-carbonyl)-6-azaspiro[2.5]octane-6-carboxylate], on MAGL [1], the inhibition at 1 µM is 100% and the IC50 is 0.007 µM. The same compound had a half-maximal inhibitory concentration (IC50) at MAGL [2] of 0.0169 µM.

`O=C(NCc1cccnc1)C1CC12CCN(C(=O)OC(C(F)(F)F)C(F)(F)F)CC2` (single isomer, unassigned) [Example 88, 1,1,1,3,3,3-hexafluoropropan-2-yl (R or S)-1-((pyridin-3-ylmethyl)carbamoyl)-6-azaspiro[2.5]octane-6-carboxylate]: the values for the concentration for half-maximal inhibition (IC50) on MAGL [1] and at MAGL [2] were 0.0325 µM and 0.0718 µM, respectively.

For `O=C(Nc1cnc(C(F)(F)F)nc1)C1CC12CCN(C(=O)OC(C(F)(F)F)C(F)(F)F)CC2` (single isomer, unassigned) [Example 99, 1,1,1,3,3,3-hexafluoropropan-2-yl (R or S)-1-((2-(trifluoromethyl)pyrimidin-5-yl)carbamoyl)-6-azaspiro[2.5]octane-6-carboxylate], the values for the half-inhibitory concentration (IC50) at MAGL [1] and at MAGL [2] were 0.0097 µM and 0.00552 µM, respectively.

Take `CN(C(=O)[C@@H]1CC12CCN(C(=O)OC(C(F)(F)F)C(F)(F)F)CC2)c1cnccn1` (single isomer, unassigned) [Example 11]: on MAGL [1], the inhibition at 1 µM was 100% and the IC50 is 0.032 µM. Further, the IC50 at MAGL [2] was 0.0993 µM.

On to `O=C(NCc1cccc(C(F)(F)F)n1)C1CC12CCN(C(=O)OC(C(F)(F)F)C(F)(F)F)CC2` (single isomer, unassigned) [Example 75, 1,1,1,3,3,3-hexafluoropropan-2-yl (R or S)-1-(((6-(trifluoromethyl)pyridin-2-yl)methyl)carbamoyl)-6-azaspiro[2.5]octane-6-carboxylate], for which the inhibition at 1 µM at MAGL [1] turned out to be 100%. On MAGL [2], this compound yielded an IC50 of 0.00911 µM.

As for `O=C(Nc1cccnn1)[C@@H]1CC12CCN(C(=O)OC(C(F)(F)F)C(F)(F)F)CC2` [Example 5, 1,1,1,3,3,3-Hexafluoropropan-2-yl (R)-1-(pyridazin-3-ylcarbamoyl)-6-azaspiro[2.5]octane-6-carboxylate], on MAGL [1], the inhibition at 1 µM worked out at 100% and the half-inhibitory concentration (IC50) came to 0.18 µM. The IC50 on MAGL [2] amounted to 0.553 µM.

On to `O=C(OC(C(F)(F)F)C(F)(F)F)N1CCC2(CC1)CC2C(=O)N1CCc2cnc(C(F)(F)F)nc2C1` (single isomer, unassigned) [Example 57, 1,1,1,3,3,3-hexafluoropropan-2-yl (R or S)-1-(2-(trifluoromethyl)-5,6,7,8-tetrahydropyrido[3,4-d]pyrimidine-7-carbonyl)-6-azaspiro[2.5]octane-6-carboxylate], for which, on MAGL [1], the inhibition at 1 µM was 100% and the 50% inhibitory concentration (IC50) was determined as 0.0017 µM. The IC50 at MAGL [2] was found to be 0.00473 µM.

For the compound `O=C(NC(=O)C1CC12CCN(C(=O)OC(C(F)(F)F)C(F)(F)F)CC2)C1CCCCC1` (single isomer, unassigned) [Example 91, 1,1,1,3,3,3-hexafluoropropan-2-yl (R or S)-1-((cyclohexanecarbonyl)carbamoyl)-6-azaspiro[2.5]octane-6-carboxylate], the IC50 at MAGL [1] came out at 0.0037 µM; at MAGL [2] it was 0.00599 µM.

Consider `O=C(OC(C(F)(F)F)C(F)(F)F)N1CCC2(CC1)CC2C(=O)N1CCn2cc(C(F)(F)F)nc2C1` (single isomer, unassigned) [Example 51, 1,1,1,3,3,3-hexafluoropropan-2-yl (R or S)-1-(2-(trifluoromethyl)-5,6,7,8-tetrahydroimidazo[1,2-a]pyrazine-7-carbonyl)-6-azaspiro[2.5]octane-6-carboxylate], for which, at MAGL [1], the inhibition at 1 µM amounted to 100% and the IC50 is 0.0048 µM. This compound had an IC50 on MAGL [2] of 0.0232 µM.

As for `CN(C(=O)[C@H]1CC12CCN(C(=O)OC(C(F)(F)F)C(F)(F)F)CC2)c1cnccn1` (single isomer, unassigned) [Example 12], on MAGL [1], the inhibition at 1 µM came out at 100%. The same compound showed an IC50 on MAGL [2] of 0.102 µM.

With `O=C(Nc1cccnc1)[C@@H]1CC12CCN(C(=O)OC(C(F)(F)F)C(F)(F)F)CC2` (single isomer, unassigned) [Example 3], at MAGL [1], the inhibition at 1 µM came out at 100% and the IC50 is 0.127 µM. The IC50 on MAGL [2] turned out to be 0.435 µM.

`O=C(OC(C(F)(F)F)C(F)(F)F)N1CCC2(CC1)CC2C(=O)N1CCn2ccnc2C1` (racemic) [Example 186, 1,1,1,3,3,3-hexafluoropropan-2-yl (+)1-(5,6,7,8-tetrahydroimidazo[1,2-a]pyrazine-7-carbonyl)-6-azaspiro[2.5]octane-6-carboxylate]: at MAGL [1], the inhibition at 1 µM was found to be 100%. Besides, on MAGL [2], the half-inhibitory concentration (IC50) is 0.168 µM.

Consider `O=C(Nc1ccc(C(F)(F)F)nc1)C1CC12CCN(C(=O)OC(C(F)(F)F)C(F)(F)F)CC2` (single isomer, unassigned) [Example 78, 1,1,1,3,3,3-hexafluoropropan-2-yl (R or S)-1-((6-(trifluoromethyl)pyridin-3-yl)carbamoyl)-6-azaspiro[2.5]octane-6-carboxylate], for which the IC50 on MAGL [1] was found to be 0.008 µM; at MAGL [2], 0.00299 µM.

As for `O=C(Nc1cccc(C(F)(F)F)n1)C1CC12CCN(C(=O)OC(C(F)(F)F)C(F)(F)F)CC2` (single isomer, unassigned) [Example 72, 1,1,1,3,3,3-hexafluoropropan-2-yl (R or S)-1-((6-(trifluoromethyl)pyridin-2-yl)carbamoyl)-6-azaspiro[2.5]octane-6-carboxylate], the inhibition at 1 µM at MAGL [1] was determined as 100%. Besides, the IC50 at MAGL [2] was 0.00617 µM.

As for `O=C(OC(C(F)(F)F)C(F)(F)F)N1CCC2(CC1)CC2C(=O)N1CCN(C2CC2)CC1` (racemic) [Example 34, 1,1,1,3,3,3-Hexafluoropropan-2-yl (±)1-(4-cyclopropylpiperazine-1-carbonyl)-6-azaspiro[2.5]octane-6-carboxylate], the inhibition at 1 µM on MAGL [1] was found to be 100%. Also, the IC50 at MAGL [2] turned out to be 0.148 µM.

As for `O=C(NC(=O)C1CC12CCN(C(=O)OC(C(F)(F)F)C(F)(F)F)CC2)C1CCCCC1` (single isomer, unassigned) [Example 90, 1,1,1,3,3,3-hexafluoropropan-2-yl (R or S)-1-((cyclohexanecarbonyl)carbamoyl)-6-azaspiro[2.5]octane-6-carboxylate], at MAGL [1], the inhibition at 1 µM came to 100% and the IC50 came out at 0.0047 µM. The half-inhibitory concentration (IC50) at MAGL [2] amounted to 0.00579 µM.

In the case of `CN(C(=O)C1CC12CCN(C(=O)OC(C(F)(F)F)C(F)(F)F)CC2)c1cccnn1` (racemic) [Example 188, 1,1,1,3,3,3-hexafluoropropan-2-yl (+)1-(methyl(pyridazin-3-yl)carbamoyl)-6-azaspiro[2.5]octane-6-carboxylate], the inhibition at 1 µM at MAGL [1] worked out at 100%. For the same compound, the IC50 on MAGL [1] was found to be 0.12 µM; at MAGL [2] it was 0.249 µM.

Turning to `CN(C(=O)C1CC12CCN(C(=O)OC(C(F)(F)F)C(F)(F)F)CC2)c1ccccn1` (single isomer, unassigned) [Example 45, 1,1,1,3,3,3-hexafluoropropan-2-yl (R or S)-1-(methyl(pyridin-2-yl)carbamoyl)-6-azaspiro[2.5]octane-6-carboxylate], on MAGL [1], the inhibition at 1 µM turned out to be 100% and the IC50 was 0.014 µM. For the same compound, the IC50 on MAGL [2] was 0.06 µM.

Turning to `O=C(Nc1ccnc(C(F)(F)F)n1)[C@@H]1CC12CCN(C(=O)OC(C(F)(F)F)C(F)(F)F)CC2` (single isomer, unassigned) [Example 18], on MAGL [1], the inhibition at 1 µM is 100% and the IC50 worked out at 0.039 µM. The same compound displayed an IC50 at MAGL [2] of 0.053 µM.

Consider `O=C(OC(C(F)(F)F)C(F)(F)F)N1CCC2(CC1)CC2C(=O)N1CCc2cncnc2C1` (racemic) [Example 187, 1,1,1,3,3,3-hexafluoropropan-2-yl (+)1-(5,6,7,8-tetrahydropyrido[3,4-d]pyrimidine-7-carbonyl)-6-azaspiro[2.5]octane-6-carboxylate], for which the inhibition at 1 µM on MAGL [1] is 100%. Further, the IC50 on MAGL [1] was 0.11 µM; at MAGL [2], 0.143 µM.
